Among the data in patent publication US8642594B2, “Substituted thieno[2,3-d]pyrimidines as HSP90 inhibitors” (Vernalis (R&D) Limited, priority 2003, dated 2014) are IC50 values, retold here.

SMILES strings stand for the structures. A value given as a limit tells only on which side of the number the result lay.

What is called IC50 is the concentration that inhibits the measured activity by half.

The target in one assay is T1, Human full-length Hsp90 (Homo sapiens, UniProt P08238).
T1 construct: E. coli expressed human full-length HSP90 protein, purified >95%; made in house; host or cells: E. coli
T1 sequence (P08238 whole entry): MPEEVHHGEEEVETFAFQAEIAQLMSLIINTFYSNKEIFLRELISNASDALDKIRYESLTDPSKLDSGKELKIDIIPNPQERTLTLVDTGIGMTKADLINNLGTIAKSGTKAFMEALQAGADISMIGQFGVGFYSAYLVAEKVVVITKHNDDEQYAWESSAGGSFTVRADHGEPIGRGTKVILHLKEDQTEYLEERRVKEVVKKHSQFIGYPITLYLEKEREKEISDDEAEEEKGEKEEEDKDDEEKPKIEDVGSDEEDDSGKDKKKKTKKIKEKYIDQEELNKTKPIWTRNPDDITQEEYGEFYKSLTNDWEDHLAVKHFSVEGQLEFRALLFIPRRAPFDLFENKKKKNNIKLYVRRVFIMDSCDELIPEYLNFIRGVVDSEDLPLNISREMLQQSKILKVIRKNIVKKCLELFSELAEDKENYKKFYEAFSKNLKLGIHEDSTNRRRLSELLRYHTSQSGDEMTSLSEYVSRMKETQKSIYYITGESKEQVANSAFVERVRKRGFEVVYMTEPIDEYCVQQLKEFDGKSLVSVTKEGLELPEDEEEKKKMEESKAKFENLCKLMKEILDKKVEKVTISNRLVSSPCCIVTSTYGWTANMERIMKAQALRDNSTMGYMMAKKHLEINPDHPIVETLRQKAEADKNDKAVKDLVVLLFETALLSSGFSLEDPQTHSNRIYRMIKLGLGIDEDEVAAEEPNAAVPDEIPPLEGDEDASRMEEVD
The assay can be described thus: Fluorescence polarization assay (competitive binding to HSP90, probe RBT0045864-FAM).
Conditions: not given
The protocol:
Fluorescence Polarization Assay
Fluorescence polarization {also known as fluorescence anisotropy} measures the rotation of a fluorescing species in solution, where the larger molecule the more polarized the fluorescence emission. When the fluorophore is excited with polarized light, the emitted light is also polarized. The molecular size is proportional to the polarization of the fluorescence emission.
The fluoroscein-labelled probe—RBT0045864-FAM—
Test compound is added to the assay plate, left to equilibrate and the anisotropy measured again. Any change in anisotropy is due to competitive binding of compound to HSP90, thereby releasing probe.
Stored at room temperature. • 3) BSA (bovine serum albumen) 10 mg/ml (New England Biolabs #B9001S) • 4) 20 mM probe in 100% DMSO stock concentration. Stored in the dark at RT. Working concentration is 200 nM diluted in AR water and stored at 4° C. […] Protocol • 1) Add 100 μl 1× buffer to wells 11A and 12A (=FP BLNK) • 2) Prepare assay mix—all reagents are kept on ice with a lid on the bucket as the probe is light-sensitive.
This gives 2.5 mM {50×} stock cpd—assuming cpds 20 mM. • 4) Repeat for wells A2 to A10. Control in columns 11 and 12. • 5) Transfer 5 μl from row A to row B—not column 12. Mix well. • 6) Transfer 5 μl from row B to row C. […] Add 2 μl of 100 mM standard cpd to wells B12-H12 {is positive control} • 13) The Z′ factor is calculated from zero controls and positive wells.
Background: Polarisation of emitted light reports the rotation of a fluorescent probe.
On to `CCNC(=O)c1cc2c(-c3ccc(Cl)cc3)nc(N)nc2s1` [Example 173], for which the IC50 was under 10 µM.

Still in this assay, the particulars now being: fluorescence polarization assay, activity range; read-out: Hsp90 FP IC50.
Consider `CCNC(=O)c1cc2c(-c3cc(C)c(C)cc3C)nc(N)nc2s1` [Example 150], for which the concentration for half-maximal inhibition (IC50) was under 10 µM. As to `CCNC(=O)c1cc2c(-c3ccc(Cl)cc3C)nc(N)nc2s1` [Example 151], the IC50 was under 10 µM. On the same count and under the same terms, next, `CCNC(=O)c1cc2c(-c3ccc(C)cc3Cl)nc(N)nc2s1` [Example 152]: under 10 µM. On the same count and under the same terms, next, `Nc1nc(-c2ccc(Cl)cc2Cl)c2cc(C(=O)NC3CCCC3)sc2n1` [Example 153]: under 10 µM; `Nc1nc(-c2ccc(Cl)cc2Cl)c2cc(C(=O)NCc3ccccn3)sc2n1` [Example 154]: under 10 µM. As for `Nc1nc(-c2ccc(Cl)cc2Cl)c2cc(C(=O)NC3CC3)sc2n1` [Example 155], the IC50 is under 10 µM. The same measure, in the same setting: next, `Nc1nc(-c2ccc(Cl)cc2Cl)c2cc(C(=O)NCCc3ccccn3)sc2n1` [Example 156]: under 10 µM; `CN1CCCC1CCNC(=O)c1cc2c(-c3ccc(Cl)cc3Cl)nc(N)nc2s1` (centres unmarked) [Example 157]: under 10 µM. `Nc1nc(-c2ccc(Cl)cc2Cl)c2cc(C(=O)NC3CN4CCC3CC4)sc2n1` (centres unmarked) [Example 158]: the 50% inhibitory concentration (IC50) is under 10 µM. As to `Nc1nc(-c2ccc(Cl)cc2Cl)c2cc(C(=O)N3CCC(N)C3)sc2n1` (centres unmarked) [Example 159], the IC50 was under 10 µM. On the same count and under the same terms, then `C[C@H](NC(=O)c1cc2c(-c3ccc(Cl)cc3Cl)nc(N)nc2s1)C(N)=O` [Example 160], with under 10 µM. Take `CC(C)C[C@H](NC(=O)c1cc2c(-c3ccc(Cl)cc3Cl)nc(N)nc2s1)C(N)=O` [Example 161]: the IC50 was under 10 µM. `NC(=O)[C@H](CO)NC(=O)c1cc2c(-c3ccc(Cl)cc3Cl)nc(N)nc2s1` [Example 162]: the IC50 is under 10 µM. As to `NC(=O)[C@H](Cc1ccc(O)cc1)NC(=O)c1cc2c(-c3ccc(Cl)cc3Cl)nc(N)nc2s1` [Example 163], the IC50 is under 10 µM.

With `NC(=O)[C@H](Cc1cnc[nH]1)NC(=O)c1cc2c(-c3ccc(Cl)cc3Cl)nc(N)nc2s1` [Example 164], the IC50 was under 10 µM. Same read-out and setting: then `CSCC[C@H](NC(=O)c1cc2c(-c3ccc(Cl)cc3Cl)nc(N)nc2s1)C(N)=O` [Example 166], with under 10 µM; and `C=Cc1ccc(-c2nc(N)nc3sc(C(=O)OCC)cc23)c(C)c1` [Example 168], with under 10 µM. Still for that read-out and setting: next, `CCOC(=O)c1cc2c(-c3ccc(Cl)cc3)nc(N)nc2s1` [Example 169]: under 10 µM; `CCNC(=O)c1cc2c(-c3cc(C=O)ccc3C)nc(N)nc2s1` [Example 170]: under 10 µM. Same read-out and setting: then `C=Cc1ccc(-c2nc(N)nc3sc(C(=O)NCC)cc23)c(C)c1` [Example 171], with under 10 µM; and `CCNC(=O)c1cc2c(-c3ccc(C#N)cc3Cl)nc(N)nc2s1` [Example 172], with under 10 µM; and `CCOC(=O)c1cc2c(-c3cc(C=O)c(C)cc3C)nc(N)nc2s1` [Example 174], with under 10 µM. Consider `CCOC(=O)c1cc2c(-c3ccc(CC)cc3Cl)nc(N)nc2s1` [Example 175], for which the IC50 is under 10 µM. With `C=CCc1ccc(-c2nc(N)nc3sc(C(=O)NCC)cc23)c(C)c1` [Example 176], the IC50 is under 10 µM. Same read-out and setting: next, `CCNC(=O)c1cc2c(-c3ccc(CC)cc3Cl)nc(N)nc2s1` [Example 177]: under 10 µM. Same read-out and setting: next, `CCOC(=O)c1cc2c(-c3cc(Cl)ccc3C)nc(N)nc2s1` [Example 178]: under 10 µM; `CCOC(=O)c1cc2c(-c3cc(C(=O)OC)ccc3C)nc(N)nc2s1` [Example 179]: under 10 µM.

As to `CCNC(=O)c1ccc(C)c(-c2nc(N)nc3sc(C(=O)NCC)cc23)c1` [Example 180], the IC50 is under 10 µM.

Regarding `CCCNC(=O)c1ccc(C)c(-c2nc(N)nc3sc(C(=O)OCC)cc23)c1` [Example 181], the IC50 was under 10 µM. Still for that read-out and setting: then `CCCNC(=O)c1ccc(C)c(-c2nc(N)nc3sc(C(=O)NCc4ccccc4)cc23)c1` [Example 182], with over 10 µM; and `CCCNC(=O)c1ccc(C)c(-c2nc(N)nc3sc(C(=O)NC4CC4)cc23)c1` [Example 183], with under 10 µM. Same read-out and setting: next, `CCOC(=O)c1cc2c(-c3ccc(O)cc3C)nc(N)nc2s1` [Example 184, 2-Amino-4-(4-hydroxy-2-methyl-phenyl)-thieno[2,3-d]pyrimidine-6-carboxylic acid ethyl ester]: under 10 µM; `CCCOc1ccc(-c2nc(N)nc3sc(C(=O)OCC)cc23)c(C)c1` [Example 185, 2-Amino-4-(2-methyl-4-propoxy-phenyl)-thieno[2,3-d]pyrimidine-6-carboxylic acid ethyl ester]: under 10 µM; `CCCCOc1ccc(-c2nc(N)nc3sc(C(=O)OCC)cc23)c(C)c1` [Example 186]: over 10 µM. As to `C=CCOc1ccc(-c2nc(N)nc3sc(C(=O)OCC)cc23)c(C)c1` [Example 187], the IC50 is under 10 µM. Still for that read-out and setting: then `CCOC(=O)c1cc2c(-c3ccc(OCC#N)cc3C)nc(N)nc2s1` [Example 188], with under 10 µM. Regarding `CCOC(=O)c1cc2c(-c3ccc(OCC(C)C)cc3C)nc(N)nc2s1` [Example 189], the IC50 was over 10 µM. In the case of `CCOC(=O)c1cc2c(-c3ccc(OCCN(CC)CC)cc3C)nc(N)nc2s1` [Example 190], the concentration for half-maximal inhibition (IC50) was over 10 µM. The same measure, in the same setting: then `CCOC(=O)c1cc2c(-c3ccc(OCC(N)=O)cc3C)nc(N)nc2s1` [Example 191], with under 10 µM.

As for `CCOC(=O)c1cc2c(-c3ccc(OCC(=O)OC(C)(C)C)cc3C)nc(N)nc2s1` [Example 192], the half-maximal inhibitory concentration (IC50) is over 10 µM.

In the case of `CCOC(=O)c1cc2c(-c3ccc(OCC(=O)O)cc3C)nc(N)nc2s1` [Example 193], the IC50 was over 10 µM. As to `CCOC(=O)c1cc2c(-c3ccc(OCCCO)cc3C)nc(N)nc2s1` [Example 194], the IC50 is under 10 µM.

Turning to `CCNC(=O)COc1ccc(-c2nc(N)nc3sc(C(=O)OCC)cc23)c(C)c1` [Example 195], the IC50 was under 10 µM. The same measure, in the same setting: next, `CCOC(=O)c1cc2c(-c3cc(C=O)ccc3C)nc(N)nc2s1` [Example 196, 2-Amino-4-(5-formyl-2-methyl-phenyl)-thieno[2,3-d]pyrimidine-6-carboxylic acid ethyl ester]: under 10 µM. As to `CCCNCc1ccc(C)c(-c2nc(N)nc3sc(C(=O)NCC)cc23)c1` [Example 197, 2-Amino-4-(2-methyl-5-propylaminomethyl-phenyl)-thieno[2,3-d]pyrimidine-6-carboxylic acid ethylamide], the IC50 was under 10 µM.

For `CCOC(=O)c1cc2c(-c3cc(CNCCN4CCOCC4)ccc3C)nc(N)nc2s1` [Example 198], the concentration for half-maximal inhibition (IC50) was under 10 µM. On the same count and under the same terms, then `CCNC(=O)c1cc2c(-c3cc(CNC4CCCC4)ccc3C)nc(N)nc2s1` [Example 199], with under 10 µM.

With `CCNC(=O)c1cc2c(-c3cc(CNCc4ccccc4)ccc3C)nc(N)nc2s1` [Example 200], the IC50 is under 10 µM. Regarding `CCNC(=O)c1cc2c(-c3cc(CNCc4cccs4)ccc3C)nc(N)nc2s1` [Example 201], the IC50 is under 10 µM. The same measure, in the same setting: then `CCNC(=O)c1cc2c(-c3cc(CNCCCOC)ccc3C)nc(N)nc2s1` [Example 202], with under 10 µM. Take `CCNC(=O)c1cc2c(-c3cc(CNC4CC4)ccc3C)nc(N)nc2s1` [Example 203]: the IC50 was under 10 µM. Still for that read-out and setting: then `CCNC(=O)c1cc2c(-c3cc(CNCCc4cnc[nH]4)ccc3C)nc(N)nc2s1` [Example 204], with under 10 µM.
